In patent publication US20020044943A1, “MUC-1 as an immunosuppressive therapeutic agent for the treatment of inflammatory and autoimmune conditions” (priority 1997, published 2002):

Tests used:
Purified T cells = assay: T cell proliferation assay (allo MLR, 3H-thymidine incorporation); type: cell-based, human; conditions: 10 ug/ml, allo PBL stimulated T cells
Procedure: Enriched T cell populations were purified from buffy coats obtained from normal red cross donors using nylon wool columns by previously reported procedures. […] For the allo MLR, mitomycin C treated allogeneic PBLs were cocultured with purified T cells in the presence or absence of affinity purified MUC-1 mucin or control OSM. In most of the experiments, the T cells were cultured 6-7 days in AIM V medium in the absence or presence of MUC-1, MUC-1 derivative or OSM at the indicated concentration. After this time, the T cells were harvested, washed and cultured as indicated.
Purified T cells (10^6/ml) were cultured in AIM V medium with allo PBLs in the absence or presence of MUC-1, MUC-1 derivative or OSM 10 ug/ml for 6-7 days. T cells were harvested and plated in 96 well flat bottom plates at 10^5/well with allo PBLs (10^5/well), in the presence or absence of affinity purified MUC-1, MUC-1 derivative or OSM. Control cultures were treated with either 50 U/ml IL-2 or 1 ug/ml anti-CD28 Mab. After 4 days of culture, ^3H-thymidine (1 uCi/well) was added. The cells were harvested on the fifth day and ^3H-thymidine incorporation was measured by liquid scintillation.
Synthetic peptides, as described in Example 8, corresponding to 3, 4, 5 or 6 MUC-1 repeats, were added at 10 ug/ml to allo cultures and T cell proliferation was measured at 14 days from the start of culture. […]

[1] = target: T1, recombinant human ICAM-1-Ig fusion protein (Homo sapiens, UniProt P05362); assay: Tumor cell-immobilized ICAM-1 adhesion assay; type: cell-based; conditions: antibodies 10 or 20 ug/mL, soluble MUC-1 10 ug/mL
T1 construct: coated with 50 uL of a solution with 20 ug/mL recombinant soluble ICAM-1 in PBS; Ig (immunoglobulin) fusion partner
T1 sequence (P05362 28-480 limits assumed): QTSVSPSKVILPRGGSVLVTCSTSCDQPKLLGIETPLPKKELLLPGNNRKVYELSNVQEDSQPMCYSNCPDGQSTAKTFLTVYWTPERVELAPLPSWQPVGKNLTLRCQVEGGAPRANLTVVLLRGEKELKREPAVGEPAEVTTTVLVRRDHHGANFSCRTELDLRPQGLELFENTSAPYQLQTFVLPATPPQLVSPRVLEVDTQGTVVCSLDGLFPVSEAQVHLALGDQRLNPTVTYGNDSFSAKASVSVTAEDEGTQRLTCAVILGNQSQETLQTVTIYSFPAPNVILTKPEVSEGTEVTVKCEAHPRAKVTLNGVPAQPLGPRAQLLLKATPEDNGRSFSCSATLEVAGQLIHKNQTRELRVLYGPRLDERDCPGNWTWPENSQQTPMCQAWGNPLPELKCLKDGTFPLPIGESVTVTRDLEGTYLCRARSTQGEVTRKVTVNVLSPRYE
Procedure: 96 well tissue culture plates were coated with 50 uL of a solution with 20 ug/mL recombinant soluble ICAM-1 in PBS for 1 hr at room temperature. Wells were then blocked with 1% BSA for 2 hr at 37 C. and washed four times with PBS. Antibodies (10 ug/mL) (anti-ICAM-1 164B, 18E3D, 84H10, anti-E selectin 1.2B6) and soluble MUC-1 (10 ug/mL) were added to the wells for 90 min. at room temperature. Wells were then washed again before addition of cells. BCECF labeled tumor cells were pretreated +/− 20 ug/mL of anti-MUC-1 (B27.29, or DF3P) and were then added to the appropriate wells for 40 min. at 37 C. Wells were then washed and percent adhesion was then determined as described in the tumor cell—endothelial cell adhesion assay.
To exclude the possibility that adhesion was being mediated by endothelial molecules other than ICAM-1, the adhesion of the MUC-1 transfectants was studied using immobilized recombinant human ICAM-1-Ig fusion protein. Adhesion was compared to Bovine Serum Albumin and Collagen type I as controls.

human T-cell cultures = assay: Mixed lymphocyte reaction (allo-antigenic T-cell proliferation); type: cell-based; conditions: B27.29 affinity purified MUC-1 mucin, various doses, in vitro
Procedure: The mixed lymphocyte reaction is conducted by mixing the lymphocytes of HLA disparate individuals in in vitro tissue cultures. The “responder population” in this experiment is purified T-cells from one population, while the “stimulator” population in this experiment is the adherent antigen presenting cells obtained from an HLA mismatched individual donor. The two cell populations were mixed and cultured either in the presence or absence of various doses of B27.29 affinity purified MUC-1 mucin that was purified from a pleural effusion fluid.

GZ-Hi tumor cells = assay: Tumor take after i.v. MUC-1 mucin and subcutaneous tumor challenge; type: in vivo; conditions: CB6 mice, MUC-1 mucin 20 micrograms i.v. on days -2, +2, +6; 1x10^6 GZ-Hi cells s.c.; observed 8 weeks
Procedure: The procedures employed in this example are similar to those described in Fung, et al. Cancer Research 51:1170-1176 (1991), which is hereby incorporated by reference. However, in the present example, the human MUC-1 system was used instead of the epiglycanin system.
CB6 mice were injected intravenously with MAb B27.29 affinity purified MUC-1 mucin (20 micrograms each treatment or approximately 400 units) prior to (day-2) and after (days +2 and +6) an attempted tumor challenge. Affinity purified mucin had been prepared by affinity adsorption on a B 27.29 CnBr-Sepharose matrix from a pleural effusion fluid obtained from a patient with adenocarcinoma of the ovaries. MUC-1 mucin treated and control mice were challenged with 1×10^6 GZ-Hi tumor cells injected into the subcutaneous space along the flank. Mice were observed by palpation and visual inspection at the injection site for the occurrence of tumors over a period of 8 weeks.

Substance: MUC-1: MAb B27.29 affinity purified human MUC-1 mucin from pleural effusion or ascites fluid of cancer patients
- reduction of T cell proliferation relative to control (Purified T cells): inhibition of T cell proliferation
- inhibition of GZHi adhesion to immobilized ICAM-1 [1]: equally effective at blocking adhesion
- inhibition of T-cell proliferation against a strong allo-antigenic stimulus (human T-cell cultures): strongly inhibits
- % Tumor Take (GZ-Hi tumor cells): 100%
